Results on 9 compounds are retold here after patent publication US11369593B2 (Texas Tech University System, priority 2017, dated 2022).

Data set [1] has as its system PC12 cells. In words: Etoposide-induced apoptosis in PC12 cells, cell viability. Type of data set: cell-based. To be noted: for viability at 1 µM / viability at 3 µM / viability at 10 µM / viability at 30 µM: Rattus norvegicus, PC-12; for viability at 1 µM: read-out: % Viability 1 μM; for viability at 3 µM: read-out: % Viability 3 μM; for viability at 10 µM: read-out: % Viability 10 μM; for viability at 30 µM: read-out: % Viability 30 μM; for protective activity in WT PC12 etoposide assay: WT PC12 cells.

For data set [2], the system named is PC12 cells. In words: Serum starvation-induced apoptosis in PC12 cells, cell viability. Type of data set: cell-based. Particulars: serum starvation-induced apoptosis, PC12 cells; for viability at 1 µM / viability at 3 µM / viability at 10 µM / viability at 30 µM: Rattus norvegicus, PC-12; for viability at 1 µM: read-out: % Viability 1 μM; for viability at 3 µM: read-out: % Viability 3 μM; for viability at 10 µM: read-out: % Viability 10 μM; for viability at 30 µM: read-out: % Viability 30 μM.

Setting [3] is: 1 μM compound, etoposide-induced apoptosis, PC12 cells.
[4] abbreviates: 3 μM compound, etoposide-induced apoptosis, PC12 cells.
Setting [5] is: 10 μM compound, etoposide-induced apoptosis, PC12 cells.
Where [6] appears, read: 30 μM compound, etoposide-induced apoptosis, PC12 cells.
Where [7] appears, read: 1 μM compound, vehicle 55.04 ± 8.99.

As for “2-chloroethyl 6-(4-fluorobenzylamino)-2-aminopyridin-3-ylcarbamate [NK-23-1]”, the “% Viability 1 μM” value with PC12 cells [1] (setting [3]) is listed as 54.01 ± 13.43%; in the data set with PC12 cells [2] (setting [7]), 84.07 ± 11.85%. Moreover, the “% Viability 3 μM” value in the data set with PC12 cells [1] (setting [4]) worked out at 53.92 ± 6.37%; in the data set on PC12 cells [2] (3 μM compound), 83.62 ± 5.88%. For the same compound, the “% Viability 10 μM” value in the data set on PC12 cells [1] (setting [5]) is 41.79 ± 4.38%; in the data set with PC12 cells [2] (10 μM compound), 100.15 ± 15.84%. The figures for the “% Viability 30 μM” value with PC12 cells [1] (setting [6]) and in the data set on PC12 cells [2] (30 μM compound) were 40.77 ± 6.98% and 106.47 ± 15.46%, respectively.
In the case of `C=CCOC(=O)Nc1ccc(NCc2ccc(Cl)cc2)nc1N` [JG-4-5], the viability at 1 µM was determined as 87.2 ± 19.8% with PC12 cells [1] (setting [3]) and 72.3 ± 1.45% in the data set on PC12 cells [2] (setting [7]). The viability at 3 µM was 79.7 ± 7.48% in the data set on PC12 cells [1] (setting [4]) and 95.2 ± 2.41% in the data set on PC12 cells [2] (3 μM compound). Besides, the results for the viability at 10 µM in the data set on PC12 cells [1] (setting [5]) and in the data set with PC12 cells [2] (10 μM compound) were 84.3 ± 13.2% and 70.2 ± 9.45%, respectively. In addition, the viability at 30 µM in the data set on PC12 cells [1] (setting [6]) worked out at 80.4 ± 24.1%; with PC12 cells [2] (30 μM compound), 71.1 ± 8.61%.
Consider `CCOC(=O)Nc1ccc(NCc2ccc(C)cc2)cc1N` [JG-32-3, Ethyl (2-amino-4-((4-methylbenzyl)amino)phenyl)carbamate], for which the values for the viability at 1 µM in the data set on PC12 cells [1] (setting [3]) and in the data set on PC12 cells [2] (setting [7]) were 110 ± 39.4% and 62.6 ± 16.7%, respectively. Besides, the viability at 3 µM with PC12 cells [1] (setting [4]) amounted to 136 ± 30.1%; in the data set with PC12 cells [2] (3 μM compound), 79.54 ± 0.6%. For the same compound, the viability at 10 µM with PC12 cells [1] (setting [5]) came out at 123 ± 23.2%; with PC12 cells [2] (10 μM compound) it was 77.9 ± 1.34%. Also, the values for the viability at 30 µM in the data set with PC12 cells [1] (setting [6]) and with PC12 cells [2] (30 μM compound) were 98 ± 22.9% and 71.33 ± 0.03%, respectively. For the same compound, the “protective activity in WT PC12 etoposide assay” value in the data set on PC12 cells [1] is listed as “significant increase in potency”.
Take `COC(=O)Nc1ccc(NCc2ccc(F)cc2)nc1N` [NK-3-1, Methyl 6-(4-fluorobenzylamino)-2-aminopyridin-3-ylcarbamate]: the values for the viability at 1 µM in the data set with PC12 cells [1] (setting [3]) and with PC12 cells [2] (setting [7]) were 74.5 ± 33.1% and 76.9 ± 10.2%, respectively. For the same compound, the viability at 3 µM with PC12 cells [1] (setting [4]) is 96.6 ± 14.6%; in the data set with PC12 cells [2] (3 μM compound), 79.1 ± 8.28%. For the same compound, the viability at 10 µM was 82.2 ± 23.4% with PC12 cells [1] (setting [5]) and 72.2 ± 9.15% in the data set on PC12 cells [2] (10 μM compound). The viability at 30 µM in the data set with PC12 cells [1] (setting [6]) is 63.3 ± 27.4%; with PC12 cells [2] (30 μM compound), 72.3 ± 16.4%.
For the compound `CC(C)COC(=O)Nc1ccc(NCc2ccc(F)cc2)nc1N` [NK-8-1, Isobutyl 6-(4-fluorobenzylamino)-2-aminopyridin-3-ylcarbamate], the viability at 1 µM with PC12 cells [1] (setting [3]) came out at 57.9 ± 22.4%; in the data set on PC12 cells [2] (setting [7]), 67.9 ± 12.6%. The figures for the viability at 3 µM in the data set with PC12 cells [1] (setting [4]) and with PC12 cells [2] (3 μM compound) were 62.9 ± 2.98% and 77.4 ± 11.7%, respectively. The viability at 10 µM with PC12 cells [1] (setting [5]) came to 46.5 ± 3.36%; in the data set with PC12 cells [2] (10 μM compound), 89.7 ± 6.68%. Further, the figures for the viability at 30 µM in the data set with PC12 cells [1] (setting [6]) and with PC12 cells [2] (30 μM compound) were 56.1 ± 0.67% and 88.3 ± 10.8%, respectively.
`CCOC(=O)Nc1ccc(NCc2cccc(C(F)(F)F)c2)nc1N` [NK-16-3, Ethyl 6-(3-(trifluoromethyl)benzylamino)-2-aminopyridin-3-ylcarbamate]: the viability at 1 µM amounted to 59.9 ± 13.8% in the data set on PC12 cells [1] (setting [3]) and 83.6 ± 14.3% in the data set on PC12 cells [2] (setting [7]). The viability at 3 µM in the data set on PC12 cells [1] (setting [4]) was found to be 68.2 ± 7.5%; in the data set with PC12 cells [2] (3 μM compound) it was 80.7 ± 8.11%. In addition, the viability at 10 µM in the data set on PC12 cells [1] (setting [5]) came out at 60.4 ± 19.4%; in the data set with PC12 cells [2] (10 μM compound) it was 86.9 ± 9.07%. The values for the viability at 30 µM in the data set on PC12 cells [1] (setting [6]) and in the data set on PC12 cells [2] (30 μM compound) were 46.4 ± 12.8% and 84.2 ± 16.1%, respectively.
`COC(=O)Nc1ccc(NCc2cccc(C(F)(F)F)c2)nc1N` [NK-16-4, Methyl 6-(3-(trifluoromethyl)benzylamino)-2-aminopyridin-3-ylcarbamate]: the viability at 1 µM with PC12 cells [1] (setting [3]) was determined as 46.7 ± 3.26%; with PC12 cells [2] (setting [7]), 92.1 ± 10.2%. Moreover, the viability at 3 µM in the data set with PC12 cells [1] (setting [4]) was 41.3 ± 10.1%; with PC12 cells [2] (3 μM compound) it was 88 ± 8.56%. Further, the results for the viability at 10 µM in the data set with PC12 cells [1] (setting [5]) and in the data set with PC12 cells [2] (10 μM compound) were 28.6 ± 2.14% and 97.8 ± 9.35%, respectively. For the same compound, the viability at 30 µM with PC12 cells [1] (setting [6]) turned out to be 37 ± 3.91%; in the data set on PC12 cells [2] (30 μM compound), 97.6 ± 1800%.
Turning to `C=CCOC(=O)Nc1ccc(NCc2cccc(C(F)(F)F)c2)nc1N` [NK-16-6, Allyl 6-(3-(trifluoromethyl)benzylamino)-2-aminopyridin-3-ylcarbamate], the viability at 1 µM came to 78 ± 37.1% in the data set on PC12 cells [1] (setting [3]) and 77.1 ± 12.1% in the data set with PC12 cells [2] (setting [7]). Moreover, the viability at 3 µM with PC12 cells [1] (setting [4]) is 107 ± 2.3%; in the data set on PC12 cells [2] (3 μM compound), 87.8 ± 10%. Moreover, the results for the viability at 10 µM in the data set with PC12 cells [1] (setting [5]) and with PC12 cells [2] (10 μM compound) were 101 ± 9.58% and 92 ± 13%, respectively. Further, the viability at 30 µM was found to be 87.6 ± 21.9% in the data set on PC12 cells [1] (setting [6]) and 74.5 ± 11.9% in the data set on PC12 cells [2] (30 μM compound). Also, in the data set with PC12 cells [1], the “protective activity in WT PC12 etoposide assay” value was “provides greater activity”.
On to `CCOC(=O)Nc1ccc(NCc2cc(C(F)(F)F)cc(C(F)(F)F)c2)nc1N` [NK-17-3, Ethyl (2-amino-6-((3,5-bis(trifluoromethyl)benzyl)amino)pyridin-3-yl)carbamate], for which the viability at 1 µM came to 63.7 ± 22.7% with PC12 cells [1] (setting [3]) and 81.8 ± 8.69% with PC12 cells [2] (setting [7]). Further, the values for the viability at 3 µM with PC12 cells [1] (setting [4]) and in the data set on PC12 cells [2] (3 μM compound) were 75.7 ± 6.39% and 72.8 ± 12.4%, respectively. Moreover, the viability at 10 µM in the data set with PC12 cells [1] (setting [5]) amounted to 68.1 ± 9.52%; in the data set with PC12 cells [2] (10 μM compound), 78.5 ± 6.27%. The viability at 30 µM in the data set on PC12 cells [1] (setting [6]) is 56 ± 6.26%; with PC12 cells [2] (30 μM compound), 57.9 ± 9.54%.
